Values joined by “and” are separate entries in the source; they are usually repeats but may differ in a detail not shown here. Equal entries are not always repeated.
Tested on: 889142-216-R-J1-PDC complex spheroid viability
Assay: Anticancer human tumor 889142-216-R-J1-PDC patient-derived bladder carcinoma cell line growth inhibition [POLQ]
Details: for viability, T/C: stronger effect = lower value
Experimental: Multicellular complex tumor spheroid response to Polymerase (POL) inhibitors (novobiocin, ART-558, RP6685) in combination with a variety of drugs and investigational agents in selected tumor cell lines
The POL inhibitors (novobiocin, ART-558, and RP6685) were evaluated both individually and in combination with standard of care and investigational anticancer small molecules within a complex spheroid model of solid tumors. . Complex spheroids include a stromal component modeled by human endothelial cells (HUVEC) and fibroblasts modeled by human mesenchymal stem cells (MSCs). The concentration ranges selected for each drug and investigational agent were based upon clinically achievable concentrations if the clinical Cmax of the agent was known.
Compounds. The drugs and investigational agents: novobiocin (NSC847541), ART-558 (NSC835418), RP-6685 (NSC848927), peposertib (NSC802822), ceralasertib (NSC780249), elimusertib (NSC800525), camonsertib (NSC841442), AZD-1390 (NSC803789), olaparib (NSC753686), talazoparib (NSC767125), rucaparib (NSC756644), sotorasib (NSC818433), MRTX-1133 (NSC836407), SN-38 (NSC673596), topotecan (NSC609699), epotoside (NSC141540), doxorubicin (NSC123127), gemcitabine (NSC613327), 5-fluorouracil (NSC19893), paclitaxel (NSC125973), vemurafenib (NSC761431), MSA-2 (NSC828583), SN-011 (NSC837082), adavosertib (NSC754352), prexasertib (NSC758257), carboplatin (NSC241240) and oxaliplatin (NSC266046), were obtained from the National Cancer Institute (NCI) Developmental Therapeutics Program Chemical Repository (21). The FDA-approved anticancer drug set is available from the Developmental Therapeutics Program at https://dtp.cancer.gov/organization/dscb/obtaining/. […] The stock solutions were prepared in dimethyl sulfoxide (DMSO, Sigma-Aldrich, St. Louis, MO, cat. D2650), except for the platinum compounds which were prepared in saline (Quality Biological, Gaithersburg, MD, cat. 114-055-101), at 800-fold the tested concentration and stored at -70 degrees C prior to their use. All drugs and investigational agents were tested over a range starting from a high concentration at or near the clinical Cmax and decreasing in half-log increments. If the clinical Cmax for an agent had not been determined, the highest concentration tested was 10 microM, except for SN-38, which was tested at a high concentration of 1 microM.
Cell Culture. All cells were maintained in an incubator at 37 degrees C and 5% CO2 with 95% humidity. The PDC lines were cultured according to standard operating procedures established by the NCI PDMR (https://pdmr.cancer.gov). Table 3 of the manuscript, lists the cell lines along with the number of the three cell types plated to form the mct-spheroids and media for tumor cell growth. After thawing, all PDC lines, except 997537-175-T-J1-PDC and 415267-285-R-J2-PDC, were cultured in Matrigel-coated flasks prepared with a working solution of 1X Ham's F-12 nutrient mix, without supplementation (Thermo Fisher Scientific, cat. 11765054), 100 U/mL penicillin-streptomycin (Thermo Fisher Scientific, cat. 15140122), and 2.5% Matrigel (Corning Inc., Corning, NY, cat. 354248) for the first three passages. The two PDC lines 997537-175-T-J1-PDC and 415267-285-R-J2-PDC were cultured on uncoated flasks. The 857933-349-R-J2-PDC line was cultured in 6C/Colon 1B media containing advanced DMEM/F-12 (Thermo Fisher Scientific, cat. 12634028), 10 mM HEPES (Thermo Fisher Scientific, cat. 15630080), 1X GlutaMAX supplement (Thermo Fisher Scientific, cat. 35050061), 0.1 mg/mL primocin (InvivoGen, San Diego, CA, cat. ant-pm-2), 10% defined fetal bovine serum, heat inactivated (HyClone Laboratories Inc., Logan, UT, cat. SH30070.03HI), 50% L-WRN conditioned media (ATCC, cat. CRL-3276), 1.25 mM N-Acetyl-L-cysteine (Sigma-Aldrich, cat. A9165), 10 mM nicotinamide (Sigma-Aldrich, cat. N0636), 1X B-27 supplement (Thermo Fisher Scientific, cat. 17504044), 1X N-2 supplement (Thermo Fisher Scientific, cat. […]
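Note: spheroids exposed to compounds for seven days.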
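Throughout, for viability, T/C: 100% = DMSO vehicle control viability.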

CC1COCCN1c1cc(C2(S(C)(=N)=O)CC2)nc(-c2ccnc3[nH]ccc23)n1 (stereo unspecified)
viability, T/C (compound 0.0316 µM): 125% and 90% and 99.5% | viability, T/C (compound 0.1 µM): 92.6% and 98.3% and 102% | viability, T/C (compound 0.316 µM): 98.3% and 75.8% and 74.6% | viability, T/C (compound 1 µM): 53.5% and 71.3% and 53.6% | viability, T/C (compound 3.16 µM): 51.8% and 48.8% and 44.5% | viability, T/C (compound 10 µM): 45.6% and 58% and 46.8% | IC50 (curve of compound): 3.75 µM and > 10 µM and 1.28 µM

CCCS(=O)(=O)Nc1ccc(F)c(C(=O)c2c[nH]c3ncc(-c4ccc(Cl)cc4)cc23)c1F
viability, T/C (compound 0.0316 µM): 74.9% and 85.2% and 120% | viability, T/C (compound 0.1 µM): 89.7% and 99.9% and 114% | viability, T/C (compound 0.316 µM): 84.1% and 105% and 81.2% | viability, T/C (compound 1 µM): 96.2% and 106% and 87.5% | viability, T/C (compound 3.16 µM): 62.4% and 72.5% and 71.5% | viability, T/C (compound 10 µM): 50% and 43.1% and 36.3% | IC50 (curve of compound): > 10 µM and 7.63 µM and 6.63 µM

CC1COCCN1c1cc(C2(S(C)(=N)=O)CC2)nc(-c2ccnc3[nH]ccc23)n1 (stereo unspecified) + Cc1cccc(N(C)C(=O)C2C(O)CCN2c2nc(C)cc(C(F)(F)F)c2C#N)c1
IC50 (curve of first compound, second compound 0.0316 µM): 7.04 µM | IC50 (curve of first compound, second compound 0.1 µM): 10 µM | IC50 (curve of first compound, second compound 0.316 µM): 3.02 µM | IC50 (curve of first compound, second compound 1 µM): 2.27 µM | IC50 (curve of first compound, second compound 3.16 µM): 1.4 µM | IC50 (curve of first compound, second compound 10 µM): 0.966 µM | viability, T/C (second compound 0.0316 µM, first compound 0.0316 µM): 109% | viability, T/C (second compound 0.0316 µM, first compound 0.1 µM): 97.9% | viability, T/C (second compound 0.0316 µM, first compound 0.316 µM): 64.5% | viability, T/C (second compound 0.0316 µM, first compound 1 µM): 76% | viability, T/C (second compound 0.0316 µM, first compound 3.16 µM): 49.4% | viability, T/C (second compound 0.0316 µM, first compound 10 µM): 48.4% | viability, T/C (second compound 0.1 µM, first compound 0.0316 µM): 92.9% | viability, T/C (second compound 0.1 µM, first compound 0.1 µM): 128% | viability, T/C (second compound 0.1 µM, first compound 0.316 µM): 82% | viability, T/C (second compound 0.1 µM, first compound 1 µM): 58.1% | viability, T/C (second compound 0.1 µM, first compound 3.16 µM): 49.5% | viability, T/C (second compound 0.1 µM, first compound 10 µM): 45.8% | viability, T/C (second compound 0.316 µM, first compound 0.0316 µM): 128% | viability, T/C (second compound 0.316 µM, first compound 0.1 µM): 97% | viability, T/C (second compound 0.316 µM, first compound 0.316 µM): 85% | viability, T/C (second compound 0.316 µM, first compound 1 µM): 65.4% | viability, T/C (second compound 0.316 µM, first compound 3.16 µM): 43.7% | viability, T/C (second compound 0.316 µM, first compound 10 µM): 41.8% | viability, T/C (second compound 1 µM, first compound 0.0316 µM): 111% | viability, T/C (second compound 1 µM, first compound 0.1 µM): 106% | viability, T/C (second compound 1 µM, first compound 0.316 µM): 70.7% | viability, T/C (second compound 1 µM, first compound 1 µM): 60.1% | viability, T/C (second compound 1 µM, first compound 3.16 µM): 50% | viability, T/C (second compound 1 µM, first compound 10 µM): 41.5% | viability, T/C (second compound 3.16 µM, first compound 0.0316 µM): 92.4% | viability, T/C (second compound 3.16 µM, first compound 0.1 µM): 94.4% | viability, T/C (second compound 3.16 µM, first compound 0.316 µM): 72.3% | viability, T/C (second compound 3.16 µM, first compound 1 µM): 53.9% | viability, T/C (second compound 3.16 µM, first compound 3.16 µM): 44.5% | viability, T/C (second compound 3.16 µM, first compound 10 µM): 41.5% | viability, T/C (second compound 10 µM, first compound 0.0316 µM): 85.6% | viability, T/C (second compound 10 µM, first compound 0.1 µM): 94.6% | viability, T/C (second compound 10 µM, first compound 0.316 µM): 89.4% | viability, T/C (second compound 10 µM, first compound 1 µM): 48.8% | viability, T/C (second compound 10 µM, first compound 3.16 µM): 50.1% | viability, T/C (second compound 10 µM, first compound 10 µM): 38.8%

COc1ccc([C@@H](O)c2cc(-c3ncnc4cc(N5CCOCC5)ccc34)c(F)cc2Cl)nn1
viability, T/C (compound 0.0316 µM): 102% and 95.6% and 99.4% | viability, T/C (compound 0.1 µM): 109% and 88.8% and 107% | viability, T/C (compound 0.316 µM): 71.6% and 95% and 74.9% | viability, T/C (compound 1 µM): 57.8% and 63.2% and 70.5% | viability, T/C (compound 3.16 µM): 54.7% and 51.1% and 55.4% | viability, T/C (compound 10 µM): 38.2% and 43.1% and 35.9% | IC50 (curve of compound): > 10 µM and 2.58 µM and 3.9 µM

C=CC(=O)N1CCN(c2nc(=O)n(-c3c(C)ccnc3C(C)C)c3nc(-c4c(O)cccc4F)c(F)cc23)C(C)C1 (stereo unspecified)
viability, T/C (compound 0.0316 µM): 85.5% and 87.6% and 108% | viability, T/C (compound 0.1 µM): 90.5% and 106% and 83.7% | viability, T/C (compound 0.316 µM): 123% and 117% and 93.5% | viability, T/C (compound 1 µM): 92.1% and 126% and 116% | viability, T/C (compound 3.16 µM): 150% and 108% and 109% | viability, T/C (compound 10 µM): 106% and 105% and 97.8% | IC50 (curve of compound): > 10 µM

O=C(Nc1ccc(O)c(NS(=O)(=O)c2ccc(F)cc2)c1)c1ccc(-c2ccccc2)cc1
viability, T/C (compound 0.0316 µM): 91.2% and 109% and 105% | viability, T/C (compound 0.1 µM): 85.2% and 97.7% and 112% | viability, T/C (compound 0.316 µM): 114% and 129% and 88% | viability, T/C (compound 1 µM): 112% and 139% and 119% | viability, T/C (compound 3.16 µM): 101% and 130% and 122% | viability, T/C (compound 10 µM): 75.8% and 76.8% and 71.4% | IC50 (curve of compound): > 10 µM

O=c1[nH]cc(F)c(=O)[nH]1
viability, T/C (compound 0.0316 µM): 97% and 89.8% and 113% | viability, T/C (compound 0.1 µM): 93.8% and 95.1% and 88.7% | viability, T/C (compound 0.316 µM): 106% and 83.7% and 94.8% | viability, T/C (compound 1 µM): 94.5% and 79.1% and 72.9% | viability, T/C (compound 3.16 µM): 76.2% and 61.7% and 80.9% | viability, T/C (compound 10 µM): 67.3% and 59.5% and 77.3% | IC50 (curve of compound): > 10 µM

CC1COCCN1c1cc(C2(O)CC3CCC(C2)O3)c2cnn(-c3ccn[nH]3)c2n1 (stereo unspecified)
viability, T/C (compound 0.0316 µM): 57.4% and 69.5% and 69.9% | viability, T/C (compound 0.1 µM): 44% and 49.5% and 54.2% | viability, T/C (compound 0.316 µM): 43.3% and 37.3% and 38.3% | viability, T/C (compound 1 µM): 32.6% and 33.5% and 34.5% | viability, T/C (compound 3.16 µM): 26% and 30.2% and 30.3% | viability, T/C (compound 10 µM): 14.7% and 11.1% and 17.2% | IC50 (curve of compound): 0.0757 µM and 0.135 µM and 0.153 µM
